From patent US20230257817A1, “IDENTIFICATION OF GENOME REGIONS ASSOCIATED WITH KIDNEY DISEASE AND TREATMENT” (THE RESEARCH INSTITUTE AT NATIONWIDE CHILDREN'S HOSPITAL, priority 2020, published 2023)
Entries after “also recorded” stand apart in the source; their conditions may differ.

Key:
rats with PAN-induced NS [1] = assay: PAN-induced nephrotic syndrome rat model, urine protein-to-creatinine ratio; type: in vivo; details: for Urine protein to creatinine ratio (UPCR): day 11 after single PAN dose 50 mg/kg IV, MP 15 mg/kg i.p. daily, Pio 10 mg/kg oral gavage daily, n=4 rats per group
Description: (§1) Proteinuria was induced in male Wister rats (body weight[…], age˜45-50 d) by single tail vein injection of Puromycin aminonucleoside (PAN, #P7130, Sigma; St. Louis, Mo.) −50 mg/kg, n=4 on Day 0, while the control group received saline injection (n=4). PAN-induced proteinuria was treated daily with methylprednisolone (15 mg/kg, n=4, Solu-Medrol; Pfizer Inc., New York, N.Y.) via intraperitoneal injection or with pioglitazone (10 mg/kg, Actos; Takeda, Deerfield, Ill.) via oral gavage until day 11 of post PAN-injection. Morning spot urine samples were collected on Day 0 (before PAN injection) and day 11 for urinary protein: creatinine ratio (UPC) analysis. Kidneys were harvested at day 11 and were processed for glomerular isolation.
UPC was measured by Antech Diagnostics (Morrisville, N.C.) using standard techniques that are fully compliant with Good Laboratory practice regulations. See Agrawal et al., Sci Rep 6, 24392 (2016)

[2] = test system: human primary mesangial cells; assay: Real-time PCR of 17 genes-of-interest in PAN-exposed human primary mesangial cells; type: cell-based; details: PAN 5 μg/ml, 24 h and 48 h
Description: (§2) The conditionally immortalized human podocyte cell line (MS13) and human primary mesangial cells were cultured as previously described. Sharma et al., J Am Soc Nephrol 28, 2618-2630 (2017). 3×10^4 undifferentiated podocytes were plated on a 6-well plate and were incubated at 37° C. for 12-14 days prior to the start of experiment whereas 1×10^5 mesangial cells were plated on a 6-well plate a day prior to start of experiment. Further, podocytes and mesangial cells were serum starved 0/N with 1% FCS containing RPMI media, before the experiment. The following day, podocytes were exposed to 2.5 and 5 μg/ml of PAN for 24 and 48 hrs whereas in case of mesangial cells, 5 μg/ml of PAN (Sigma; St. Louis, Mo.) was added for 24 and 48 hrs. Cells were lysed in 400 μl of RNA lysis buffer provided by Ambion (#AM1560).
(§3) Total RNA from the cultured podocytes and mesangial cells was isolated using the miRVANA miRNA isolation kit (Ambion, ThermoScientific) according to the manufacturer's instructions. The RNA was eluted in 40 μl of nuclease free water. The purity and yield of RNA was determined by measuring the absorbance at 230, 260 and 280 nm. Briefly, 1 μg of RNA was subjected to DNase (Ambion, Thermo Fisher Scientific) digestion at 37° C. for 30 min followed by DNase inactivation with 5 mM EDTA at 75° C. for 10 min.
(§4) […] of total isolated RNA was reverse transcribed to cDNA by iScript cDNA synthesis kit according to manufacturer's instructions (#1708890. Bio-Rad). The resulting cDNA was diluted to 1:5 with nuclease free water. Diluted cDNA was finally used for relative mRNA quantitation of 17 targets-of-interest using SYBER green based Bio-Rad CFX96 Real-Time PCR machine (Bio-Rad Labs, Hercules, Calif.). Both RPL19 and PPIA were used as reference genes.

[3] = test system: human podocyte cell line (MS13); assay: Real-time PCR of 17 genes-of-interest in PAN-exposed human podocyte cell line; type: cell-based; details: PAN 2.5 and 5 μg/ml, 24 h and 48 h
Description: as §2, §3, §4

glomerular genes = assay: RNA sequencing of glomeruli isolated from PAN-NS rats (glomerular transcriptome); type: in vivo, rat
Description: as §1
Glomeruli were isolated using sieving method where kidney cortex was pared using curved scissors into the petri lid with cold PBS, minced well, drained and washed onto pre-moistened No. 80 sieve. Using squeeze bottle, minced kidneys on No. 80 sieve were washed thoroughly and transferred to No. 140 sieve. No. 140 and 200 are stacked together to catch smaller material. Kidney material was then ground through No. 140 sieve with very gentle pressure using bottom of cold round 250 ml beaker. The ground kidney was washed back and forth well over sieve No. 140 onto No. 200. This catch material is the glomeruli. The glomeruli were washed with cold PBS to get rid of any contaminants and the final washed material was collected into labeled 50 ml conical tube. The tube was spun at ˜1500 rpm for 3 min Glomeruli precipitate was then suspended in RLT buffer (Qiagen, Germantown, Md.) containing β-mercaptoethanol (#M6250 Sigma).
Total RNA from the isolated glomeruli was isolated using the RNeasy mini Kit (Qiagen) according to the manufacturer's instructions. The purity and yield of RNA was determined by measuring the absorbance at 230, 260 and 280 nm. Briefly, 1 ug of RNA was subjected to DNase (Ambion, Thermo Fisher Scientific) digestion at 37° C. for 30 min followed by DNase inactivation with 5 mM EDTA at 75° C. for 10 min.
RNA quality was assessed using the Agilent 2100 Bioanalyzer and RNA Nano Chip Kit (Agilent Technologies, CA) to ensure that the RNA Integrity Number (RIN) was ≥7. RNA-seq libraries were then generated using TruSeq Standard total RNA with Ribo-Zero Globin Complete kit (Illumina, CA). Briefly, ribosomal RNA (rRNA) was removed from 350 ng of total RNA with biotinylated, target-specific oligos combined with Ribo-Zero rRNA removal beads from the Human/Mouse/Rat Globin kit. To generate directional signals in RNA seq data, libraries were constructed from first strand cDNA using ScriptSeq™ v2 RNA-Seq library preparation kit (Epicentre Biotechnologies, WI). Briefly, 50 ng of rRNA-depleted RNA was fragmented and reverse transcribed using random primers containing a 5′ tagging sequence, followed by 3′ end tagging with a terminal-tagging oligo to yield di-tagged, single-stranded cDNA. Following purification using a magnetic bead-based approach, the di-tagged cDNA was amplified by limit-cycle PCR using primer pairs that anneal to tagging sequences and add adaptor sequences required for sequencing cluster generation. Amplified RNA-seq libraries were purified using AMPure XP System (Beckman Coulter). The quality of libraries was determined via Agilent 2200 TapeStation using High Sensitivity D1000 tape, and quantified using Kappa SYBR®Fast qPCR kit (KAPA Biosystems, Inc, MA). Approximately, 90-125 million paired-end 150 bp reads were generated per sample using the Illumina HiSeq4000 platform. Raw data were converted to FASTQ using Illumina's bc12fastq application. Sequencing adapters matching at least 6 bases were then removed from the reads, as well as low-quality bases (<10) using v1.10 of cutadapt. […]

rats with PAN-induced NS [4] = details: earlier study, Agrawal et al., Sci Rep 6, 24392 (2016); cited from earlier work
[5] = PAN-NS glomeruli, day 11, FDR<0.05, of 1,872 DEGs
[6] = overlap analysis, common to both treatments

SMILES: CN(C)c1ncnc2c1ncn2[C@@H]1O[C@H](CO)[C@@H](N)[C@H]1O [PAN, Puromycin aminonucleoside]
- Urine protein to creatinine ratio (UPCR) (rats with PAN-induced NS [1]): 57.2 ± 41.6 mg/mg
- CPT1B, PDK4, ANGPTL4, TAGLN and CDKN1A mRNA expression [2]: significant increase in expression
- SERPINE1, MMP14, CCL2, LIF, BIRC5 mRNA expression [2]: did not follow the expected pattern
- MMP2 mRNA expression ([2]; P=0.007 vs. controls): induced; also recorded: markedly upregulated
- ACTA2 mRNA expression ([2]; P=0.045 vs. controls): induced; also recorded: markedly upregulated
- CPT1B, PDK4, ANGPTL4, TAGLN and CDKN1A mRNA expression [3]: significant increase in expression
- SERPINE1, MMP14, CCL2, LIF, BIRC5 mRNA expression [3]: did not follow the expected pattern
- LGALS3 mRNA expression ([3]; P=0.0003 vs. controls): induction of expression; also recorded: exclusively enhanced
- number of glomerular genes significantly downregulated compared to healthy controls (glomerular genes; [5]): 858
- number of glomerular genes significantly upregulated compared to healthy controls (glomerular genes; [5]): 1,014

SMILES: CCc1ccc(CCOc2ccc(CC3SC(=O)NC3=O)cc2)nc1 (stereo not shown) [Pio, pioglitazone]
- reduction of proteinuria (UPCR) vs PAN (rats with PAN-induced NS [1]; day 11, PAN+MP or PAN+Pio vs PAN): 94%
- Urine protein to creatinine ratio (UPCR) (rats with PAN-induced NS [1]): 3.45 ± 0.82 mg/mg
- effect on transcriptional profiles of endothelial cell-specific genes (glomerular genes; 42 endothelial genes): neither MP nor Pio treatment had notable effects
- PAN-induced gene expression alterations in podocyte- and mesangial cell-specific gene clusters (glomerular genes; 66 podocyte and 43 mesangial genes, PCA plots): substantially reversed
- number of the 858 glomerular genes downregulated in PAN-NS significantly ameliorated (glomerular genes; FDR<0.05 vs PAN): 144
- number of the 1,014 glomerular genes upregulated in PAN-NS significantly ameliorated (glomerular genes; FDR<0.05 vs PAN): 346
- share of the 858 glomerular genes downregulated in PAN-NS significantly ameliorated (glomerular genes; FDR<0.05 vs PAN): 17%
- share of the 1,014 glomerular genes upregulated in PAN-NS significantly ameliorated (glomerular genes; FDR<0.05 vs PAN): 34%
- PAN-induced dysregulation of glomerular gene sets associated with extracellular matrix and cyclins (GSEA) (glomerular genes; GSEA, FDR<0.05): significantly ameliorated
- number of DEGs significantly induced by PAN but ameliorated by both MP and Pio (glomerular genes; [6]): 319
- number of DEGs significantly suppressed by PAN but ameliorated by both MP and Pio (glomerular genes; [6]): 126
- proteinuria in PAN-induced rat model of NS, previously reported (rats with PAN-induced NS [4]): significantly reduced proteinuria; also recorded: significant proteinuria reduction
